A short description of this data set: Pharmacokinetic study of 153 (and metabolite endothal) in SD rats, iv and po; plasma, liver, brain. It is filed as in vivo. As to conditions: for endothal detectable in brain samples: after single iv 153 at 1.25 mg/kg, 1.25 mg/kg. As for the experimental part: The blood, liver and brain tissue samples were collected at predetermined times from rats. […] Compound were diluted shortly before use in 4% sodium bicarbonate for sterile injection (this is the standard pediatric solution of NaHCO3 with a pH of about 8.5).
Compound 153 was freshly prepared by diluting the drugs shortly before use in 4% sodium bicarbonate for sterile injection (this is the standard pediatric solution of NaHCO3 with a pH of about 8.5). The final concentrations of 153 solutions were 0.25 mg/mL. The 153 solutions were administered via iv or po route at dose volume of 5 ml/kg according to the latest body weight. Compound 157 was freshly prepared by diluting the drugs shortly before use in 4% sodium bicarbonate for sterile injection (this is the standard pediatric solution of NaHCO3 with a pH of about 8.5). The final concentrations of […] solutions were 0.3 mg/mL. The 157 solutions were administered via iv or po route at dose volume of 5 ml/kg according to the latest body weight.
Twelve (12) female SD rats per group were dosed by iv with 153 or 157. The rats were fasted overnight prior to dosing, with free access to water. Foods were withheld for 2 hours post-dose. Blood, liver and brain tissue samples in two animals each group were collected at each time point, within 10% of the scheduled time for each time point. Two extra animals were used for analytic method development.
Blood (>0.3 mL) were collected via aorta abdominalis in anaesthetic animals into tubes containing heparin at 15 min, 1, 2, 6, 10 and 24 hours after iv administration. Liver and brain tissues were collected immediately after animal death. The liver and brain tissues were excised and rinsed with cold saline to avoid blood residual. Upon collection, each sample was placed on ice and the blood samples were subsequently centrifuged (4° C., 11000 rpm, 5 min) to separate plasma. The obtained plasma, liver and brain tissue samples were stored at −70° C. until LC-MS/MS analysis.
Two (2) female SD rats per group were dosed by po with 153 or 157. The rats were fasted overnight prior to dosing, with free access to water. Foods were withheld for 2 hours post-dose. Blood samples (>0.3 mL) were collected via aorta abdominalis in anaesthetic animals into tubes containing heparin at 30 min, 1, 2, 6, 10 and 24 hours after po administration.
To each sample, 20 μL IS-D (for blank samples, 20 μL acetonitrile:water (1:1) was added) and 300 μl acetonitrile was added. The sample mixture was vortexed for approximately 3 min. After centrifugation at 10000 rpm for 5 min at 4° C., 100 μL of the upper layer was transferred to a new tube and added 200 μL 0.4% formic acid in water (pH 6.0). The mixture was vortexed for approximately 3 min before injected onto the LC/MS/MS system for analysis.
On the day of the assay, the frozen liver and brain samples were thawed unassisted at room temperature. An about 200 mg weighed sample of each thawed tissue was placed into a plastic tube with water (0.6 mL) to facilitate homogenization. Tissue processing was conducted using a homogenizer for approximately 1 min, 200 μl homogenate was transferred into a fresh Eppendorf tube. To each tube, 50 μL IS-D was added and mixed. Then 600 μl acetonitrile was added and the sample mixture was vortexed for approximately 3 min. After centrifugation at 10000 rpm for 5 min at 4° C., 400 μL of the upper layer was transferred to a new tube and evaporate the supernatant to dryness at 35° C. Reconstitute the residue with 200 μL of 0.4% formic acid in water (pH6.0), and vortex for 3 min, submit for LC-MS/MS analysis.
Frozen unknown plasma samples were completely thawed at room temperature and vortexed thoroughly. With a pipette, 50 μL of plasma was transferred into a 2.0 mL Eppendorf tube. 50 μL of 0.1N HCl and 800 μL ethyl acetate were added into each sample. The sample mixture was vortexed for approximately 3 min.

With `O=C(O)C1C2CCC(O2)C1C(=O)O` (stereo not drawn) [Endothal, 7-oxabicyclo[2.2.1]heptane-2,3-dicarboxylic acid], the “endothal detectable in brain samples” value is given as “undetectable”. The Endothal plasma concentration entry (after iv 153, 10 hr, Rat 2) was “BLQ”. The Endothal plasma concentration result (after iv 153, 24 hr, Rat 1) is given as “BLQ”. Also, under “after iv 153, 24 hr, Rat 2”, the Endothal plasma concentration entry is listed as “BLQ”. Further, the Endothal plasma concentration result (after po 153, 10 hr, Rat 1) is “BLQ”. The “endothal detectable in brain samples” value (listed as endothal) is on record as “not detectable”.

The values above are taken from patent US20160264593A1 (priority 2013, published 2016).
